According to the supplement of paper PMC4862054:

What was measured:
Experiment in all cases: normalised response (% of control), CellTiter-Glo; higher = more viable cells (100 = DMSO, 0 = benzethonium chloride kill control)
Settings in all cases: incubation time: 72 h
[1] = test system: BT-549
Procedure, shortened: (§1)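 Each value is the plate-normalised signal at one concentration of the series. Breast cancer cell lines (20 µl suspension) were incubated 72 h in 384-well plates with compound at 5 concentrations in 10-fold steps over a compound-specific 10,000-fold range. CellTox Green and then CellTiter-Glo were read, and each plate was scaled to 0.1 % DMSO (100) and a positive kill control (0).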

[2] = test system: HCC1937
Procedure, shortened: as §1

[3] = test system: CAL-51
Procedure, shortened: as §1

[4] = test system: MFM-223
Procedure, shortened: as §1

[5] = test system: SK-BR-3
Procedure, shortened: as §1

[6] = test system: CAL-85-1
Procedure, shortened: as §1

[7] = test system: DU-4475
Procedure, shortened: as §1

[8] = test system: MDA-MB-453
Procedure, shortened: as §1

[9] = test system: MDA-MB-231
Procedure, shortened: as §1

[10] = test system: Hs578T
Procedure, shortened: as §1

[11] = test system: HCC1599
Procedure, shortened: as §1

[12] = test system: BT-474
Procedure, shortened: as §1

[13] = test system: CAL-120
Procedure, shortened: as §1

[14] = test system: HCC1143
Procedure, shortened: as §1

[15] = test system: CAL-148
Procedure, shortened: as §1

[16] = test system: MDA-MB-436
Procedure, shortened: as §1

[17] = test system: MDA-MB-468
Procedure, shortened: as §1

[18] = test system: HDQ-P1
Procedure, shortened: as §1

[19] = test system: MCF-10A
Procedure, shortened: as §1

COCC[n+]1c2c(n(Cc3cnccn3)c1C)C(=O)c1ccccc1C2=O [YM155] (10 nM)
normalised response [1]: 91.5% | normalised response [2]: 55.7% | normalised response [3]: 77.8% | normalised response [4]: 75.3% | normalised response [5]: 69.8% | normalised response [6]: 31.8% | normalised response [7]: 101% | normalised response [8]: 66.2% | normalised response [9]: 37.6% | normalised response [10]: 95.2% | normalised response [11]: 43.3% | normalised response [12]: 25.6% | normalised response [13]: 7.43% | normalised response [14]: 56.4% | normalised response [15]: 85% | normalised response [16]: 26.6% | normalised response [17]: 11.8% | normalised response [18]: 79.8% | normalised response [19]: 88.1%

CCn1c(-c2nonc2N)nc2cnc(Oc3cccc(NC(=O)c4ccc(OCCN5CCOCC5)cc4)c3)cc21 (10 nM)
normalised response [1]: 97.3% | normalised response [2]: 104% | normalised response [3]: 121% | normalised response [4]: 106% | normalised response [5]: 117% | normalised response [6]: 102% | normalised response [7]: 94.2% | normalised response [8]: 91.3% | normalised response [9]: 99.8% | normalised response [10]: 104% | normalised response [11]: 104% | normalised response [12]: 93.3% | normalised response [13]: 92.4% | normalised response [14]: 101% | normalised response [15]: 94.9% | normalised response [16]: 95% | normalised response [17]: 94.3% | normalised response [18]: 103% | normalised response [19]: 89%

CCc1c2c(nc3ccc(OC(=O)N4CCC(N5CCCCC5)CC4)cc13)-c1cc3c(c(=O)n1C2)COC(=O)[C@]3(O)CC [Irinotecan] (10 nM)
normalised response [1]: 90.8% | normalised response [2]: 94.8% | normalised response [3]: 114% | normalised response [4]: 98.7% | normalised response [5]: 109% | normalised response [6]: 100% | normalised response [7]: 106% | normalised response [8]: 107% | normalised response [9]: 97.7% | normalised response [10]: 97.7% | normalised response [11]: 97.5% | normalised response [12]: 100% | normalised response [13]: 94.2% | normalised response [14]: 99.7% | normalised response [15]: 93.7% | normalised response [16]: 92.7% | normalised response [17]: 105% | normalised response [18]: 98.4% | normalised response [19]: 105%

CN(C)c1nc(N(C)C)nc(N(C)C)n1 [Altretamine] (10 nM)
normalised response [1]: 100% | normalised response [2]: 99.3% | normalised response [3]: 101% | normalised response [4]: 109% | normalised response [5]: 113% | normalised response [6]: 101% | normalised response [7]: 100% | normalised response [8]: 115% | normalised response [9]: 101% | normalised response [10]: 110% | normalised response [11]: 103% | normalised response [12]: 101% | normalised response [13]: 97.9% | normalised response [14]: 105% | normalised response [15]: 109% | normalised response [16]: 96.5% | normalised response [17]: 104% | normalised response [18]: 98.9% | normalised response [19]: 109%

COC(=O)c1ccc2c(c1)NC(=O)/C2=C(\Nc1ccc(N(C)C(=O)CN2CCN(C)CC2)cc1)c1ccccc1 [Nintedanib] (1 nM)
normalised response [1]: 97.6% | normalised response [2]: 97.7% | normalised response [3]: 121% | normalised response [4]: 99.1% | normalised response [5]: 101% | normalised response [6]: 99.1% | normalised response [7]: 101% | normalised response [8]: 120% | normalised response [9]: 98.7% | normalised response [10]: 95.9% | normalised response [11]: 103% | normalised response [12]: 98% | normalised response [13]: 104% | normalised response [14]: 97.1% | normalised response [15]: 110% | normalised response [16]: 101% | normalised response [17]: 110% | normalised response [18]: 102% | normalised response [19]: 103%

N#Cc1ccc(COC[C@H]2O[C@@H](n3c(NCc4ccc(Cl)c(Cl)c4)nc4c(N)ncnc43)[C@H](O)[C@@H]2O)cc1 (10 nM)
normalised response [1]: 103% | normalised response [2]: 98.7% | normalised response [3]: 76.3% | normalised response [4]: 113% | normalised response [5]: 132% | normalised response [6]: 98.1% | normalised response [7]: 106% | normalised response [8]: 106% | normalised response [9]: 106% | normalised response [10]: 101% | normalised response [11]: 92.3% | normalised response [12]: 107% | normalised response [13]: 97.2% | normalised response [14]: 107% | normalised response [15]: 115% | normalised response [16]: 108% | normalised response [17]: 101% | normalised response [18]: 97.5% | normalised response [19]: 101%

Nc1cc(C(F)(F)F)c(-c2cc(N3CCOCC3)nc(N3CCOCC3)n2)cn1 [Buparlisib] (10 nM)
normalised response [1]: 100% | normalised response [2]: 93.3% | normalised response [3]: 113% | normalised response [4]: 97.3% | normalised response [5]: 110% | normalised response [6]: 96.5% | normalised response [7]: 97.1% | normalised response [8]: 104% | normalised response [9]: 103% | normalised response [10]: 98.4% | normalised response [11]: 108% | normalised response [12]: 97.3% | normalised response [13]: 104% | normalised response [14]: 97.2% | normalised response [15]: 97% | normalised response [16]: 101% | normalised response [17]: 101% | normalised response [18]: 99% | normalised response [19]: 98.2%

CNC(=O)c1ccc(N2C(=S)N(c3ccc(C#N)c(C(F)(F)F)c3)C(=O)C2(C)C)cc1F [Enzalutamide] (10 nM)
normalised response [1]: 91.4% | normalised response [2]: 91.3% | normalised response [3]: 124% | normalised response [4]: 98.6% | normalised response [5]: 98% | normalised response [6]: 93.5% | normalised response [7]: 101% | normalised response [8]: 99% | normalised response [9]: 94.5% | normalised response [10]: 101% | normalised response [11]: 95.8% | normalised response [12]: 103% | normalised response [13]: 95.3% | normalised response [14]: 103% | normalised response [15]: 107% | normalised response [16]: 99.4% | normalised response [17]: 98.7% | normalised response [18]: 100% | normalised response [19]: 106%

Nc1cc(C(F)(F)F)c(-c2cc(N3CCOCC3)nc(N3CCOCC3)n2)cn1 [Buparlisib] (1 nM)
normalised response [1]: 102% | normalised response [2]: 97.1% | normalised response [3]: 112% | normalised response [4]: 97.1% | normalised response [5]: 101% | normalised response [6]: 92.3% | normalised response [7]: 97.7% | normalised response [8]: 101% | normalised response [9]: 98.7% | normalised response [10]: 97.3% | normalised response [11]: 90.2% | normalised response [12]: 98.8% | normalised response [13]: 103% | normalised response [14]: 92.6% | normalised response [15]: 95% | normalised response [16]: 98.9% | normalised response [17]: 96.3% | normalised response [18]: 97.3% | normalised response [19]: 98.8%

CO[C@H]1C[C@@H]2CC[C@@H](C)[C@@](O)(O2)C(=O)C(=O)N2CCCC[C@H]2C(=O)O[C@H]([C@H](C)C[C@@H]2CC[C@@H](OP(C)(C)=O)[C@H](OC)C2)CC(=O)[C@H](C)/C=C(\C)[C@@H](O)[C@@H](OC)C(=O)[C@H](C)C[C@H](C)/C=C/C=C/C=C/1C [Ridaforolimus] (0.01 nM)
normalised response [1]: 101% | normalised response [2]: 99.6% | normalised response [3]: 109% | normalised response [4]: 105% | normalised response [5]: 111% | normalised response [6]: 99.8% | normalised response [7]: 103% | normalised response [8]: 109% | normalised response [9]: 103% | normalised response [10]: 96.8% | normalised response [11]: 113% | normalised response [12]: 107% | normalised response [13]: 103% | normalised response [14]: 102% | normalised response [15]: 105% | normalised response [16]: 103% | normalised response [17]: 102% | normalised response [18]: 109% | normalised response [19]: 104%
